From PubChem BioAssay AID256 (DTP/NCI, 2004) come the findings set out here.

Several values for one entry are separate records, joined by “and”; a condition that tells them apart may be missing. Equal values may be shown once. Toxic doses and inconclusive results are not listed.

The test has as its system CD2F1 mice, L1210 leukemia ip, survival T/C. The experiment in a line: NCI In Vivo Anticancer Drug Screen. Data for tumor model L1210 Leukemia (intraperitoneal) in CD2F1 (CDF1) mice. To be noted: higher = longer survival. Put shortly: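 Antitumor effect is scored in animals hosting a serially transplanted tumor. Values compare compound-dosed animals against vehicle-only controls as a simple quotient.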

The mark [1] stands for this setting: endpoint: mean survival time, dose: 200.0 mg/kg/injection, schedule: Q01DX001 (ip), vehicle: saline with Tween-80.
[2] abbreviates: endpoint: mean survival time, dose: 100.0 mg/kg/injection, schedule: Q04DX003 (ip), vehicle: saline with Tween-80.
Setting [3] is: endpoint: mean survival time, dose: 200.0 mg/kg/injection, schedule: Q04DX003 (ip), vehicle: saline with Tween-80.
The mark [4] stands for this setting: endpoint: mean survival time, dose: 400.0 mg/kg/injection, schedule: Q04DX003 (ip), vehicle: saline with Tween-80.
Where [5] appears, read: endpoint: mean survival time, dose: 100.0 mg/kg/injection, schedule: Q01DX009 (ip), vehicle: saline with Tween-80.
[6] abbreviates: endpoint: mean survival time, dose: 200.0 mg/kg/injection, schedule: Q01DX009 (ip), vehicle: saline with Tween-80.

Consider `CC([O-])C(=O)[O-].NCC1CCC1CN.[Pt+4]` (stereo unspecified), for which the T/C (endpoint: median survival time, dose: 0.78 mg/kg/injection, schedule: Q04DX003 (ip), vehicle: saline) is 114 % of control; the T/C (endpoint: median survival time, dose: 1.56 mg/kg/injection, schedule: Q04DX003 (ip), vehicle: saline) is 120 % of control; the T/C (endpoint: median survival time, dose: 3.12 mg/kg/injection, schedule: Q04DX003 (ip), vehicle: saline) is 156 % of control; the T/C (endpoint: median survival time, dose: 6.25 mg/kg/injection, schedule: Q04DX003 (ip), vehicle: saline) is 156 % of control; the T/C (endpoint: median survival time, dose: 12.5 mg/kg/injection, schedule: Q04DX003 (ip), vehicle: saline) is 192 % of control and 341 % of control; the T/C (endpoint: median survival time, dose: 25.0 mg/kg/injection, schedule: Q04DX003 (ip), vehicle: saline) is 168 % of control and 223 % of control.
`O=C(O)Cc1ccc(O)cc1`: the T/C runs as follows: (endpoint: mean survival time, dose: 100.0 mg/kg/injection, schedule: Q01DX001 (ip), vehicle: saline with Tween-80) 101 % of control; under setting [1], 101 % of control; (endpoint: mean survival time, dose: 400.0 mg/kg/injection, schedule: Q01DX001 (ip), vehicle: saline with Tween-80) 108 % of control.
For the compound `O=C(CC(=O)Nc1ccccc1)Nc1ccccc1`, the T/C under setting [2] was 100 % of control, the T/C under setting [3] is 100 % of control and the T/C under setting [4] was 99 % of control.
Consider `[N-]=[N+]=CC(=O)CCC(NC(=O)OCc1ccccc1)C(=O)OCc1ccccc1` (stereo unspecified), for which the T/C reads like this: (endpoint: median survival time, dose: 200.0 mg/kg/injection, schedule: Q01DX009 (ip), vehicle: Klucel (hydroxypropylcellulose) (HPC)) 123 % of control and 96 % of control and 111 % of control; (endpoint: median survival time, dose: 400.0 mg/kg/injection, schedule: Q01DX009 (ip), vehicle: Klucel (hydroxypropylcellulose) (HPC)) 114 % of control.
Turning to `O=c1c2ccccc2c(-c2ccccc2)nn1Cc1ccccc1`, the T/C is, setting by setting: under setting [2], 103 % of control; under setting [3], 108 % of control; under setting [4], 98 % of control.
Consider `COc1ccc(NC(=S)/C(=C(\[O-])c2ccc([N+](=O)[O-])cc2)[n+]2ccc(C(C)C)cc2)cc1`, for which the T/C is, setting by setting: under setting [5], 91 % of control; under setting [6], 97 % of control.
`COc1ccc(N=C=S)cc1N=C=S`: the T/C was 98 % of control (endpoint: mean survival time, dose: 6.25 mg/kg/injection, schedule: Q01DX001 (ip), vehicle: saline with Tween-80); 97 % of control (endpoint: mean survival time, dose: 12.5 mg/kg/injection, schedule: Q01DX001 (ip), vehicle: saline with Tween-80); 101 % of control (endpoint: mean survival time, dose: 25.0 mg/kg/injection, schedule: Q01DX001 (ip), vehicle: saline with Tween-80).
Regarding `CC1CC2OC(=O)C(O)(CO)C2CC2(C)C(=O)C=CC12` (stereo unspecified), the T/C is, setting by setting: (endpoint: mean survival time, dose: 25.0 mg/kg/injection, schedule: Q04DX002 (ip), vehicle: saline) 102 % of control; (endpoint: mean survival time, dose: 50.0 mg/kg/injection, schedule: Q04DX002 (ip), vehicle: saline) 107 % of control.
On to `O=C(Nc1cccnc1)c1cccc([N+](=O)[O-])c1`, for which the T/C (endpoint: mean survival time, dose: 25.0 mg/kg/injection, schedule: Q01DX009 (ip), vehicle: Klucel (hydroxypropylcellulose) (HPC)) is 108 % of control; the T/C (endpoint: mean survival time, dose: 25.0 mg/kg/injection, schedule: Q04DX002 (ip), vehicle: Klucel (hydroxypropylcellulose) (HPC)) is 97 % of control; the T/C (endpoint: mean survival time, dose: 50.0 mg/kg/injection, schedule: Q01DX009 (ip), vehicle: Klucel (hydroxypropylcellulose) (HPC)) is 110 % of control; the T/C (endpoint: mean survival time, dose: 50.0 mg/kg/injection, schedule: Q04DX002 (ip), vehicle: Klucel (hydroxypropylcellulose) (HPC)) was 102 % of control; the T/C (endpoint: mean survival time, dose: 100.0 mg/kg/injection, schedule: Q01DX009 (ip), vehicle: Klucel (hydroxypropylcellulose) (HPC)) was 93 % of control; the T/C (endpoint: mean survival time, dose: 100.0 mg/kg/injection, schedule: Q04DX002 (ip), vehicle: Klucel (hydroxypropylcellulose) (HPC)) was 97 % of control. Besides, the T/C (endpoint: mean survival time, dose: 200.0 mg/kg/injection, schedule: Q01DX009 (ip), vehicle: Klucel (hydroxypropylcellulose) (HPC)) was 92 % of control and the T/C (endpoint: mean survival time, dose: 200.0 mg/kg/injection, schedule: Q04DX002 (ip), vehicle: Klucel (hydroxypropylcellulose) (HPC)) was 96 % of control.
Take `NC(CSS(=O)(=O)CC(N)C(=O)O)C(=O)O` (stereo unspecified): the T/C is 103 % of control (endpoint: mean survival time, dose: 100.0 mg/kg/injection, schedule: Q04DX003 (ip), vehicle: saline); 109 % of control (endpoint: mean survival time, dose: 200.0 mg/kg/injection, schedule: Q04DX003 (ip), vehicle: saline); 103 % of control (endpoint: mean survival time, dose: 400.0 mg/kg/injection, schedule: Q04DX003 (ip), vehicle: saline).
For `Cc1nc(N)[nH]c(=O)c1[N+](=O)[O-]`, the T/C reads like this: (endpoint: mean survival time, dose: 100.0 mg/kg/injection, schedule: Q04DX003 (ip), vehicle: other) 108 % of control; (endpoint: mean survival time, dose: 200.0 mg/kg/injection, schedule: Q04DX003 (ip), vehicle: other) 113 % of control.
With `CCOC(=O)C(=CNc1ccc(OC)cc1[N+](=O)[O-])C(=O)OCC`, the T/C runs as follows: (endpoint: mean survival time, dose: 100.0 mg/kg/injection, schedule: Q01DX005 (ip), vehicle: saline with Tween-80) 103 % of control; under setting [5], 93 % of control; (endpoint: mean survival time, dose: 200.0 mg/kg/injection, schedule: Q01DX005 (ip), vehicle: saline with Tween-80) 97 % of control; under setting [6], 89 % of control; (endpoint: mean survival time, dose: 400.0 mg/kg/injection, schedule: Q01DX005 (ip), vehicle: saline with Tween-80) 91 % of control; (endpoint: mean survival time, dose: 400.0 mg/kg/injection, schedule: Q01DX009 (ip), vehicle: saline with Tween-80) 89 % of control.
As for `CCCCc1ccc(N=C(N)N=C(N)N)cc1`, the T/C (endpoint: mean survival time, dose: 9.5 mg/kg/injection, schedule: Q01DX001 (ip), vehicle: other) is 103 % of control; the T/C (endpoint: mean survival time, dose: 19.0 mg/kg/injection, schedule: Q01DX001 (ip), vehicle: other) is 94 % of control; the T/C (endpoint: mean survival time, dose: 38.0 mg/kg/injection, schedule: Q01DX001 (ip), vehicle: other) was 91 % of control.
In the case of `CSC(=S)NNC(=O)c1cccc(S(=O)(=O)F)c1`, the T/C was 97 % of control (endpoint: mean survival time, dose: 75.0 mg/kg/injection, schedule: Q01DX001 (ip), vehicle: saline); 96 % of control (endpoint: mean survival time, dose: 150.0 mg/kg/injection, schedule: Q01DX001 (ip), vehicle: saline); 96 % of control (endpoint: mean survival time, dose: 300.0 mg/kg/injection, schedule: Q01DX001 (ip), vehicle: saline).
Take `COc1ccc2c3csc4ccccc4c-3nc2c1`: the T/C under setting [2] was 91 % of control.
Turning to `Cc1cc(C(=O)O)c(CC(=O)O)o1`, the T/C is, setting by setting: (endpoint: mean survival time, dose: 100.0 mg/kg/injection, schedule: Q04DX002 (ip), vehicle: saline with Tween-80) 104 % of control; (endpoint: mean survival time, dose: 200.0 mg/kg/injection, schedule: Q04DX002 (ip), vehicle: saline with Tween-80) 104 % of control; (endpoint: mean survival time, dose: 400.0 mg/kg/injection, schedule: Q04DX002 (ip), vehicle: saline with Tween-80) 86 % of control.
For the compound `O=C(O)c1cnc(Cl)nc1Nc1ccccc1I`, under setting [1], the T/C was 86 % of control.
Consider `CC1=CCC=C(CNc2ncnc3nc[nH]c23)C1`, for which the T/C under setting [2] is 87 % of control.
In the case of `C=C(NC(=O)C(=C)NC(=O)c1csc(C2=NC3c4csc(n4)C4NC(=O)c5csc(n5)C(C(C)(O)C(C)O)NC(=O)C5CSC(=N5)/C(=C/C)NC(=O)C(C(C)O)NC(=O)c5csc(n5)C3(CC2)NC(=O)C(C)NC(=O)C(=C)NC(=O)C(=C)NC(=O)C(C(C)C)NC2C=Cc3c(C(C)O)cc(nc3C2O)C(=O)OC4C)n1)C(N)=O` (stereo unspecified), the T/C is 107 % of control (endpoint: mean survival time, dose: 3.12 mg/kg/injection, schedule: Q01DX009 (ip), vehicle: saline); 113 % of control (endpoint: mean survival time, dose: 6.25 mg/kg/injection, schedule: Q01DX009 (ip), vehicle: saline); 124 % of control and 108 % of control (endpoint: mean survival time, dose: 12.5 mg/kg/injection, schedule: Q01DX009 (ip), vehicle: saline); 113 % of control and 115 % of control (endpoint: mean survival time, dose: 25.0 mg/kg/injection, schedule: Q01DX009 (ip), vehicle: saline); 120 % of control (endpoint: mean survival time, dose: 50.0 mg/kg/injection, schedule: Q01DX009 (ip), vehicle: saline); 113 % of control and 124 % of control (endpoint: mean survival time, dose: 100.0 mg/kg/injection, schedule: Q01DX009 (ip), vehicle: saline). Besides, the T/C (endpoint: mean survival time, dose: 200.0 mg/kg/injection, schedule: Q01DX009 (ip), vehicle: saline) was 124 % of control and 108 % of control.
Take `CCOC(=O)C(Cc1ccccc1C(=O)NC)c1ccccc1` (stereo unspecified): the T/C by setting is: under setting [2], 94 % of control; under setting [3], 94 % of control; (endpoint: mean survival time, dose: 400.0 mg/kg/injection, schedule: Q01DX009 (ip), vehicle: saline sonified) 92 % of control; under setting [4], 100 % of control.
`CC(=O)Oc1[nH]c(=O)c2cccc3c2c1CCC3`: the T/C by setting is: (endpoint: median survival time, dose: 25.0 mg/kg/injection, schedule: Q01DX009 (ip), vehicle: saline with Tween-80) 106 % of control; (endpoint: median survival time, dose: 50.0 mg/kg/injection, schedule: Q01DX009 (ip), vehicle: saline with Tween-80) 104 % of control; (endpoint: median survival time, dose: 100.0 mg/kg/injection, schedule: Q01DX009 (ip), vehicle: saline with Tween-80) 100 % of control and 104 % of control; (endpoint: median survival time, dose: 200.0 mg/kg/injection, schedule: Q01DX009 (ip), vehicle: saline with Tween-80) 97 % of control and 103 % of control; (endpoint: median survival time, dose: 400.0 mg/kg/injection, schedule: Q01DX009 (ip), vehicle: saline with Tween-80) 97 % of control and 108 % of control.
